Reference: PubChem BioAssay (NCI)
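Test compounds were applied to cells in 96-well plates for 48 hours at 5 doses. GI50: concentration for 50% inhibition of growth. Definition used: TGI = concentration required for complete inhibition of growth.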

Assays:
Experiment in all cases: NCI tumour cell line growth inhibition, 48 h
OVCAR-4 ovarian = tested on: OVCAR-4 ovarian
SF-268 CNS = tested on: SF-268 CNS
786-0 renal = tested on: 786-0 renal
SN12C renal = tested on: SN12C renal
BT-549 breast = tested on: BT-549 breast
ACHN renal = tested on: ACHN renal
T-47D breast = tested on: T-47D breast
MCF7 breast = tested on: MCF7 breast
PC-3 prostate = tested on: PC-3 prostate
HCC-2998 colon = tested on: HCC-2998 colon
SK-MEL-28 melanoma = tested on: SK-MEL-28 melanoma
SK-MEL-5 melanoma = tested on: SK-MEL-5 melanoma
UACC-257 melanoma = tested on: UACC-257 melanoma
NCI-H522 lung = tested on: NCI-H522 lung
TK-10 renal = tested on: TK-10 renal
DU-145 prostate = tested on: DU-145 prostate
SF-539 CNS = tested on: SF-539 CNS
HOP-62 NSCLC = tested on: HOP-62 NSCLC
SW-620 colon = tested on: SW-620 colon
KM12 colon = tested on: KM12 colon
HL-60(TB) leukemia = tested on: HL-60(TB) leukemia
SF-295 CNS = tested on: SF-295 CNS
EKVX NSCLC = tested on: EKVX NSCLC
NCI/ADR-RES ovarian = tested on: NCI/ADR-RES ovarian
IGROV1 ovarian = tested on: IGROV1 ovarian
HCT-15 colon = tested on: HCT-15 colon
HCT-116 colon = tested on: HCT-116 colon
MOLT-4 leukemia = tested on: MOLT-4 leukemia
A549 NSCLC = tested on: A549 NSCLC
UO-31 renal = tested on: UO-31 renal
OVCAR-5 ovarian = tested on: OVCAR-5 ovarian
NCI-H460 lung = tested on: NCI-H460 lung
NCI-H226 lung = tested on: NCI-H226 lung
A498 renal = tested on: A498 renal
SK-OV-3 ovarian = tested on: SK-OV-3 ovarian
COLO 205 colon = tested on: COLO 205 colon
OVCAR-8 ovarian = tested on: OVCAR-8 ovarian
SNB-19 CNS = tested on: SNB-19 CNS
HT29 colon = tested on: HT29 colon
SR leukemia = tested on: SR leukemia
U251 CNS = tested on: U251 CNS
M14 melanoma = tested on: M14 melanoma
CAKI-1 renal = tested on: CAKI-1 renal
LOX IMVI melanoma = tested on: LOX IMVI melanoma
SK-MEL-2 melanoma = tested on: SK-MEL-2 melanoma
K-562 leukemia = tested on: K-562 leukemia
HOP-92 NSCLC = tested on: HOP-92 NSCLC
MALME-3M melanoma = tested on: MALME-3M melanoma
UACC-62 melanoma = tested on: UACC-62 melanoma
NCI-H23 lung = tested on: NCI-H23 lung
MDA-MB-231 breast = tested on: MDA-MB-231 breast
HS 578T breast = tested on: HS 578T breast
OVCAR-3 ovarian = tested on: OVCAR-3 ovarian
SNB-75 CNS = tested on: SNB-75 CNS
RXF 393 renal = tested on: RXF 393 renal
RPMI-8226 leukemia = tested on: RPMI-8226 leukemia
CCRF-CEM leukemia = tested on: CCRF-CEM leukemia

## COc1ccc2c(c1)sc1nc(-c3ccccc3)c(-c3ccsc3)n12
OVCAR-4 ovarian
  GI50: 3.7 µM
  TGI: > 100 µM
SF-268 CNS
  GI50: 8.54 µM
  TGI: > 100 µM
786-0 renal
  GI50: 7.58 µM
  TGI: > 100 µM
SN12C renal
  GI50: 12.1 µM
  TGI: > 100 µM
BT-549 breast
  GI50: 6.56 µM
  TGI: > 100 µM
ACHN renal
  GI50: 6.76 µM
  TGI: > 100 µM
T-47D breast
  GI50: 6.27 µM
  TGI: > 100 µM
MCF7 breast
  GI50: 3.78 µM
  TGI: > 100 µM
PC-3 prostate
  GI50: 4.02 µM
  TGI: > 100 µM
HCC-2998 colon
  GI50: 4.86 µM
  TGI: 93.1 µM
SK-MEL-28 melanoma
  GI50: 4.9 µM
  TGI: > 100 µM
SK-MEL-5 melanoma
  GI50: 3.34 µM
  TGI: 47.4 µM
UACC-257 melanoma
  GI50: > 100 µM
  TGI: > 100 µM
NCI-H522 lung
  GI50: 2.99 µM
  TGI: 36.8 µM
TK-10 renal
  GI50: 37.7 µM
  TGI: > 100 µM
DU-145 prostate
  GI50: 3.45 µM
  TGI: > 100 µM
SF-539 CNS
  GI50: 2.62 µM
  TGI: > 100 µM
HOP-62 NSCLC
  GI50: 7.86 µM
  TGI: > 100 µM
SW-620 colon
  GI50: 3.84 µM
  TGI: > 100 µM
KM12 colon
  GI50: 3.7 µM
  TGI: > 100 µM
HL-60(TB) leukemia
  GI50: 3.95 µM
  TGI: 92.7 µM
SF-295 CNS
  GI50: 3.06 µM
  TGI: > 100 µM
EKVX NSCLC
  GI50: 7.76 µM
  TGI: > 100 µM
NCI/ADR-RES ovarian
  GI50: 2.53 µM
  TGI: > 100 µM
IGROV1 ovarian
  GI50: 6.53 µM
  TGI: > 100 µM
HCT-15 colon
  GI50: 2.91 µM
  TGI: > 100 µM
HCT-116 colon
  GI50: 4.18 µM
  TGI: > 100 µM
MOLT-4 leukemia
  GI50: 4.24 µM
  TGI: > 100 µM
A549 NSCLC
  GI50: 5.02 µM
  TGI: > 100 µM
UO-31 renal
  GI50: 6.03 µM
  TGI: > 100 µM
OVCAR-5 ovarian
  GI50: 4.49 µM
  TGI: > 100 µM
NCI-H460 lung
  GI50: 4.45 µM
  TGI: > 100 µM
NCI-H226 lung
  GI50: 2.17 µM
  TGI: 18.1 µM
A498 renal
  GI50: 6.26 µM
  TGI: > 100 µM
SK-OV-3 ovarian
  GI50: 3.48 µM
  TGI: 64.6 µM
COLO 205 colon
  GI50: 2.26 µM
  TGI: 6.38 µM
OVCAR-8 ovarian
  GI50: 5.95 µM
  TGI: > 100 µM
SNB-19 CNS
  GI50: 6.9 µM
  TGI: > 100 µM
HT29 colon
  GI50: 2.95 µM
  TGI: 10.5 µM
SR leukemia
  GI50: 2.02 µM
  TGI: > 100 µM
U251 CNS
  GI50: 3.72 µM
  TGI: > 100 µM
M14 melanoma
  GI50: 2.64 µM
  TGI: > 100 µM
CAKI-1 renal
  GI50: 5.04 µM
  TGI: > 100 µM
LOX IMVI melanoma
  GI50: 5.25 µM
  TGI: > 100 µM
SK-MEL-2 melanoma
  GI50: 9.72 µM
  TGI: > 100 µM
K-562 leukemia
  GI50: 0.878 µM
  TGI: > 100 µM
HOP-92 NSCLC
  GI50: 9.89 µM
  TGI: > 100 µM
MALME-3M melanoma
  GI50: > 100 µM
  TGI: > 100 µM
UACC-62 melanoma
  GI50: 3.52 µM
  TGI: > 100 µM
NCI-H23 lung
  GI50: 4 µM
  TGI: > 100 µM
MDA-MB-231 breast
  GI50: 5.46 µM
  TGI: > 100 µM
HS 578T breast
  GI50: > 100 µM
  TGI: > 100 µM
OVCAR-3 ovarian
  GI50: 2.15 µM
  TGI: 5.37 µM

## C=CCn1c(C)nc2cc(Nc3nc(Nc4ccc5nc(C)n(CC=C)c5c4)c4ccccc4n3)ccc21
OVCAR-4 ovarian
  GI50: 0.24 µM
  TGI: 0.583 µM
SF-268 CNS
  GI50: 1.28 µM
  TGI: 3.1 µM
786-0 renal
  GI50: 0.312 µM
  TGI: 1.08 µM
ACHN renal
  GI50: 0.292 µM
  TGI: 1.01 µM
T-47D breast
  GI50: 0.28 µM
  TGI: 0.909 µM
MCF7 breast
  GI50: 0.224 µM
  TGI: 0.554 µM
HCC-2998 colon
  GI50: 1.17 µM
  TGI: 2.5 µM
SK-MEL-28 melanoma
  GI50: 1.41 µM
  TGI: 3.16 µM
SK-MEL-5 melanoma
  GI50: 1.36 µM
  TGI: 2.64 µM
NCI-H522 lung
  GI50: 1.43 µM
  TGI: 3.27 µM
TK-10 renal
  GI50: 0.78 µM
  TGI: 2.1 µM
DU-145 prostate
  GI50: 0.389 µM
  TGI: 1.34 µM
SF-539 CNS
  GI50: 1.03 µM
  TGI: 2.22 µM
SNB-75 CNS
  GI50: 0.745 µM
  TGI: 2.3 µM
KM12 colon
  GI50: 0.254 µM
  TGI: 0.659 µM
HL-60(TB) leukemia
  GI50: 1.7 µM
  TGI: 4.13 µM
SF-295 CNS
  GI50: 1.19 µM
  TGI: 2.56 µM
RXF 393 renal
  GI50: 0.354 µM
  TGI: 1.37 µM
NCI/ADR-RES ovarian
  GI50: 2.03 µM
  TGI: 5.27 µM
MOLT-4 leukemia
  GI50: 0.229 µM
  TGI: 0.629 µM
UO-31 renal
  GI50: 1.4 µM
  TGI: 2.74 µM
OVCAR-5 ovarian
  GI50: 0.751 µM
  TGI: 2 µM
NCI-H226 lung
  GI50: 2.02 µM
  TGI: 4.77 µM
A498 renal
  GI50: 1.46 µM
  TGI: 2.87 µM
OVCAR-8 ovarian
  GI50: 0.229 µM
  TGI: 0.535 µM
HT29 colon
  GI50: 0.19 µM
  TGI: 0.348 µM
CAKI-1 renal
  GI50: 1.61 µM
  TGI: 3.03 µM
LOX IMVI melanoma
  GI50: 0.208 µM
  TGI: 0.466 µM
RPMI-8226 leukemia
  GI50: 1.24 µM
  TGI: 3.93 µM
HOP-92 NSCLC
  GI50: 0.78 µM
  TGI: 2.08 µM
CCRF-CEM leukemia
  GI50: 0.279 µM
  TGI: 0.76 µM
NCI-H23 lung
  GI50: 1.88 µM
  TGI: 4.57 µM
HS 578T breast
  GI50: 2.02 µM
  TGI: 5.22 µM
OVCAR-3 ovarian
  GI50: 0.183 µM
  TGI: 0.342 µM
